Measured values: patent US11672964B2, “Bioactive components conjugated to substrates of microneedle arrays” (University of Pittsburgh—Of the Commonwealth System of …, priority 2015, dated 2023)

Tests used:
epidermal cells = details: pyramidal CMC-microneedle array, 5 mg/g of CMC, arrays removed after 5 minutes, 72 hours of exposure
Experimental: Cytoxan® was integrated at a concentration of 5 mg/g of CMC, enabling delivery of approximately about 140 μg per array. This is a therapeutically relevant concentration based on the area of skin targeted, yet well below levels associated with systemic toxicities. Living human skin organ cultures were used to assess the cytotoxicty of Cytoxan®. Cytoxan® was delivered by application of arrays to skin explants as we previously described. Arrays and residual material were removed 5 minutes after application, and after 72 hours of exposure, culture living skin explants were cryo-sectioned and fixed. Apoptosis was evaluated using green fluorescent TUNEL assay (In Situ Cell Death Detection Kit, TMR […], Roche, cat #:11-684-795-910).

human skin = assay: Apoptosis in human skin at the chosen MNA doxorubicin dose; details: MNA dose chosen for the tumor study
B16 melanoma = assay: Treatment of established B16 skin tumors with MNAs; details: MNAs once weekly for three weeks; for survival: combination: long term survival through day 70
Experimental: B16 skin tumors were established in normal mice by injection. Visible established cutaneous tumors were treated once weekly for three weeks with MNAs containing either doxorubicin alone, Poly(I:C) alone, or doxorubicin and Poly(I:C) incorporated into the same MNA. […] Tumor growth and survival were measured regularly for the duration of the study.

Compound	apoptosis (TUNEL) (epidermal cells)	apoptosis and necrosis in human skin (human skin)	tumor growth (B16 melanoma)	survival (B16 melanoma) [%]
O=P1(N(CCCl)CCCl)NCCCO1 (stereo not drawn) [Cytoxan®, cyclophosphamide]	extensive apoptosis of epidermal cells	–	–	–
COc1cccc2c1C(=O)c1c(O)c3c(c(O)c1C2=O)C[C@@](O)(C(=O)CO)C[C@@H]3O[C@H]1C[C@H](N)[C@H](O)[C@H](C)O1 [doxorubicin]	–	induces apoptosis in human skin without causing necrosis	slowed tumor growth	30
Poly(I:C)	–	–	slowed tumor growth	50
